Consider four molecules from patent US20100022589A1, “PYRIDINE-3-CARBOXAMIDE COMPOUNDS AND THEIR USE FOR INHIBITING 11-BETA-HYDROXYSTEROID DEHYDROGENASE” (priority 2006, published 2010).

This assay addresses T1, human 11βHSD1 enzyme (Homo sapiens, UniProt P28845).
T1 construct: N terminal 6-His tagged full length human 11βHSD1 enzyme; 6-His (N); made in house
The assay can be described thus: 11βHSD1 competitive HTRF assay (conversion of cortisone to cortisol). The format is biochemical. The conditions noted are these: for activity in the 11βHSD1 assay: at 30 μM; for IC50: baculovirus expressed N terminal 6-His tagged full length human 11βHSD1, cortisone 160 nM, 25 minutes at 37° C. On the procedure: The conversion of cortisone to the active steroid cortisol by 11βHSD1 oxo-reductase activity, can be measured using a competitive homogeneous time resolved fluorescence assay (HTRF) (CisBio International, R&D, Administration and Europe Office, In Vitro Technologies—HTRF®/Bioassays BP 84175, 30204 Bagnols/Cèze Cedex, France. Cortisol bulk HTRF kit: Cat No. 62CORPEC).
The evaluation of compounds described herein was carried out using a baculovirus expressed N terminal 6-His tagged full length human 11βHSD1 enzyme(*1). The enzyme was purified from a detergent solublised cell lysate, using a copper chelate column. Inhibitors of 11βHSD1 reduce the conversion of cortisone to cortisol, which is identified by an increase in signal, in the above assay.
Compounds to be tested were dissolved in dimethyl sulphoxide (DMSO) to 10 mM and diluted further in assay buffer containing 10% DMSO to 10 fold the final assay concentration. Diluted compounds were then plated into black 384 well plates (Matrix, Hudson N.H., USA).
The assay was carried out in a total volume of 20 μl consisting of cortisone (Sigma, Poole, Dorset, UK, 160 nM), glucose-6-phosphate (Roche Diagnostics, 1 mM), NADPH (Roche Diagnostics, 100 μM), glucose-6-phosphate dehydrogenase (Roche Diagnostics, 12.5 μg/ml), EDTA (Sigma, Poole, Dorset, UK, 1 mM), assay buffer (K2HPO4/KH2PO4, 100 mM) pH 7.5, recombinant 11βHSD1 (1.5 μg/ml) plus test compound. The assay plates were incubated for 25 minutes at 37° C. after which time the reaction was stopped by the addition of 10 μl of 0.5 mM glycerrhetinic acid plus cortisol-XL665. 10 μl of anti-cortisol Cryptate was then added and the plates sealed and incubated for 6 hours at room temperature. Fluorescence at 665 nm and 620 nm was measured and the 665 nm:620 nm ratio calculated using an Envision plate reader.
For orientation: Time-resolved FRET reads energy transfer from a long-lived donor to a nearby acceptor.

Molecules are shown by their SMILES.

T1 sequence (P28845 whole entry): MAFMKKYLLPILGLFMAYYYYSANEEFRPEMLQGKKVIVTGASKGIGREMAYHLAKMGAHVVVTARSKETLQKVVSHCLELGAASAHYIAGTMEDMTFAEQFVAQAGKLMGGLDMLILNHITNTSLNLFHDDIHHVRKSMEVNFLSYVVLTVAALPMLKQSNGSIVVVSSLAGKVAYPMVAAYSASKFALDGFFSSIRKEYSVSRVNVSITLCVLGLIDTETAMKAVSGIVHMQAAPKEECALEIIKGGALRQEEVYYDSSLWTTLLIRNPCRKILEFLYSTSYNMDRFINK

Regarding `O=C(O)c1ccccc1CCSc1ncccc1C(=O)NC1CCCCC1` [N-cyclohexyl-2-[2-(2-carboxyphenyl)ethyl)sulfanyl]pyridine-3-carboxamide], the “activity in the 11βHSD1 assay” value is on record as “did not show activity”.

On to `O=C(NC1CCCCC1)c1ccc(C(F)(F)F)nc1SCCc1ccccc1` [N-cyclohexyl-2-(phenethylsulfanyl)-6-trifluoromethylpyridine-3-carboxamide], for which the “activity in the 11βHSD1 assay” value is listed as “did not show activity”.

As usually defined, the IC50 is the concentration at which inhibition is half-maximal. Read a low IC50 as greater potency in that assay. In turn, `O=C(NC1CCCCC1)c1cccnc1SCCc1ccccc1` [Example 4, N-Cyclohexyl-2-phenethylsulfanyl-pyridine-3-carboxamide] came in with an IC50 of 27 nM.

Take `O=C(NC1CCCCC1)c1cccnc1SCCc1ccccn1` [Example 3, N-Cyclohexyl-2-(2-pyridin-2-ylethylsulfanyl)pyridine-3-carboxamide]: the IC50 stood at 890 nM.
